Measured values as given in patent US20120083464A1, “NEUROPROTECTIVE PROPERTIES OF 5'-METHYLTHIOADENOSINE” (priority 2009, published 2012).
“Also recorded” adds a separate entry of the source.

How the values were obtained:
[1] = test system: mixed cultures of neurons and astrocytes obtained from the cerebral cortex; assay: Oxygen-glucose deprivation (simulated ischemia) in neuron-astrocyte co-cultures; format: cell-based, Sprague-Dawley rat
Source text: (§1) Primary neuron cultures were obtained from the cortical lobes of E18 Sprague-Dawley rat embryos according to previously described procedures (Cheung et al., 1998, Neuropharmacology 37:1419-1429). The cells were resuspended in B27 Neurobasal medium plus 10% FBS and then seeded in 24-well plates at 1-2×10^5 cells per well onto a monolayer of astrocytes which were previously prepared as described earlier (Vallejo-Illarramendi et al., 2005, Glia 50:276-279). One day later, the medium was replaced by B27-supplemented Neurobasal medium and 10% fetal bovine serum, and maintained at 37° C. and 5% CO2. Cultures were used 8-9 days after plating. Cultured neurons and astrocytes were identified using antibodies to microtubule associated protein-2 and glial fibrillary acidic protein, respectively.
Ischemic damage was induced by incubating cell cultures in a hyperbaric chamber for 1 hour in nitrogen-saturated buffer containing NaCl 130 mM, KCl 5.4 mM, CaCl2 0.1323 mM, […], MgCl2 0.8 mM, NaH2PO4 1.18 mM, 10 mM sucrose as a substitute of glucose, and the glyocolytic blocker iodoacetate (20 or 50 μM). After the insult, cells were incubated in normoxia, glucose added and iodoacetate removed for an additional period of 24 hours. […] The results are expressed as the mean±SEM of at least four independent experiments performed in triplicate.

[2] = test system: rats after focal ischemia (MCAO); format: in vivo
PC12 cells = assay: Neurite differentiation assay in PC12 cells; format: cell-based, rat
Description: The PC12 cells were maintained in HAM's medium at 37° C., supplemented with 2.5% of fetal bovine serum, 15% of horse serum and penicillin/streptomycine. The neurite differentiation assays were conducted using 24-well plates treated with collagen in HAM's medium supplemented with 0.5% of fetal bovine serum and penicillin/streptomycine. NGF (100 ng/ml) or MTA at different concentrations (25 μM, 100 μM and 2 mM) were added to the cultures and, after four days, the percentage of cells with neurites longer than twice cell body. In each experiment a minimum of 300 cells were randomly counted.

RN22 cells [3] = assay: Copper sulphate stress in RN22 cells, MTT cell viability; format: cell-based, rat
Description: (§2) RN22 cells were maintained at 37° C. in DMEM medium supplemented with 10% of fetal bovine serum and penicillin/streptomycine. The assays against stress with copper sulphate were conducted using 24-well plates in DMEM medium without serum. After allowing cell adherence for three days, NGF (100 ng/ml) or MTA was added to different concentrations half an hour before the copper sulphate (150 μM). After twenty-four hours, cell viability was quantified by MTT assay and ROS production was quantified by fluorescence. Assays against stress with hydrogen peroxide were conducted in the same way as the foregoing, using 100 μM hydrogen peroxide as a stress-producing agent.
We determined the quantity of MTT (Sigma) that is reduced to insoluble formazan. After separating the medium, the water-insoluble formazan is solubilised in DMSO and the dissolved material is measured in a spectrophotometer at 570 nm.

[4] = test system: MAPK, p38/SAPK and STAT3 pathways; assay: Intracellular phosphorylation in PC12 cells (Luminex); format: cell-based, rat; conditions: PC12 cells after MTA-induced differentiation, four days
Source text: The phosphorylation of different intracellular proteins was detected using Luminex technology. After the neurite differentiation assay the PC12 cells were received in lysis buffer and tested using different antibodies: total Akt/PKB, total p38/SAPK, total STAT3, total ERK/MAPK, total P70 S6 Kinase, phosphorolyated Akt/PKB (Ser473), phosphorylated Akt/PKB (Thr 308), phosphorylated p38/SAPK (Thr180/Tyr182), phosphorilyated STAT 3 (Tyr705/Ser 727), phosphorylated ERK/MAPK (Thr185/Tyr187) and phosphorylated P70 S6 Kinase (Thr412).

RN22 cells [5] = assay: Hydrogen peroxide stress in RN22 cells, ROS levels; format: cell-based, rat; conditions: hydrogen peroxide 100 μM, different time periods
Description: as §2
We determined the quantity of ROS produced by the cells after stress with and without treatment. 2′,7′- dichlorodihydrofluorescein (DCFH) is generally used to measure oxidative stress in cells. The cells were incubated with DCFH-DA (10 μM) at 37° C. for thirty minutes. After incubation, the cells were washed twice with PBS and lysed by adding 10 mM Tris-HCL buffer containing 0.5% of Tween 20. The homogenates were then centrifuged at 10,000 g for ten minutes to separate the cell residue and […] fluorescence in the supernatant was measured using a fluorometer (excitation wavelength 492-495 nm, emission wavelength 517-527 nm) (Invitrogen).

[6] = test system: mixed cultures of neurons and astrocytes from the cerebral cortex; assay: Cell toxicity and viability assays (calcein-AM, LDH) in neuron-astrocyte co-cultures; format: cell-based; conditions: MTA 10 μM-1 mM for 24 hours
Source text: as §1
Cell death and cell viability in neuron-astrocyte co-cultures was assayed after 24 h of exposure to MTA (10 μM to 1 mM) using lactate dehydrogenase and calcein-AM assays respectively followed by fluorimetry measurements (Synergy-HT). The results are expressed as percentage of viable cells or LDH release versus controls, as the mean±SEM of at least four independent experiments performed in triplicate. […]

CSC[C@H]1O[C@@H](n2cnc3c(N)ncnc32)[C@H](O)[C@@H]1O [MTA, 5′-methylthioadenosine]
protection from OGD-induced damage compared with APV (50 μM) ([1]; MTA at 10 μM): even more protective than APV
protection from OGD (ischemia)-induced damage ([1]; OGD 1 hour with IAA at 20 or 50 μM, both conditions, assayed 24 hours later): highly protective
damaged area (TTC staining) versus vehicle ([2]; MTA 30 mg/kg i.p. twice daily from 30 min after onset of ischemia, 3 days of reperfusion): did not show a reduction; also recorded: does not protect
toxicity to rats after ischemia ([2]; MTA 100 mg/kg i.p. twice daily): toxic
neurite development at the highest concentration tested (PC12 cells; MTA 5 mM): does not affect neurite development
most optimal MTA concentration for formation of new neurites (PC12 cells; four days): 1 mM
neurite differentiation (formation of new processes) (PC12 cells; four days, concentration dependent): develop new processes
cell viability response (MTT) under copper sulphate stress at high MTA concentrations (RN22 cells [3]; MTA in mM range): lowest response
cell viability (MTT) under copper sulphate stress (RN22 cells [3]; copper sulphate 150 μM, twenty-four hours, reaches NGF control levels at most MTA concentrations): significant neuroprotective effect
phosphorylation of intracellular proteins: MAPK, p38/SAPK and STAT3 pathways [4]: activation
ROS production under hydrogen peroxide stress (RN22 cells [5]): capable of reducing ROS production
astrocyte resistance and viability to MTA [6]: resistant and viable
toxicity (cell viability by calcein fluorescence; cell death by LDH release) ([6]; neurons in co-culture): very low; also recorded: not toxic
